Source: US20260262643A1, “HERBICIDAL BENZOXAZINES” (FMC CORPORATION, priority 2022, published 2026)

Assays:
blackgrass [1] = experiment: Test C preemergence; assay type: in vivo, Alopecurus myosuroides; conditions: preemergence, 0 to 100 scale (0 no effect, 100 complete control)
Procedure, shortened: (§1)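 Test material, in non-phytotoxic solvent with surfactant, was sprayed on the soil directly after seeding (preemergence) or on young plants of 2–10 cm with one to two leaves (postemergence). Greenhouse, 10 days; 0–100 visual control scale.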

ryegrass, Italian [2] = experiment: Test C postemergence; assay type: in vivo, Lolium multiflorum; conditions: 10 days, 0 to 100 scale (0 no effect, 100 complete control)
Procedure, shortened: as §1

wheat [3] = experiment: Test C postemergence; assay type: in vivo, Triticum aestivum; conditions: 10 days, 0 to 100 scale (0 no effect, 100 complete control)
Procedure, shortened: as §1

horseweed = experiment: Test C postemergence; assay type: in vivo, Erigeron canadensis; conditions: 10 days, 0 to 100 scale (0 no effect, 100 complete control)
Procedure, shortened: as §1

kochia [4] = experiment: Test C postemergence; assay type: in vivo, Bassia scoparia; conditions: 10 days, 0 to 100 scale (0 no effect, 100 complete control)
Procedure, shortened: as §1

galium = experiment: Test C postemergence; assay type: in vivo, Galium aparine; conditions: 10 days, 0 to 100 scale (0 no effect, 100 complete control)
Procedure, shortened: as §1

oat, wild [5] = experiment: Test C postemergence; assay type: in vivo, Avena fatua; conditions: 10 days, 0 to 100 scale (0 no effect, 100 complete control)
Procedure, shortened: as §1

green foxtail [6] = experiment: Test C preemergence; assay type: in vivo, Setaria viridis; conditions: preemergence, 0 to 100 scale (0 no effect, 100 complete control)
Procedure, shortened: as §1

corn [7] = experiment: Test C postemergence; assay type: in vivo, Zea mays; conditions: 10 days, 0 to 100 scale (0 no effect, 100 complete control)
Procedure, shortened: as §1

barnyardgrass [8] = experiment: Test C preemergence; assay type: in vivo, Echinochloa crusgalli; conditions: preemergence, 0 to 100 scale (0 no effect, 100 complete control)
Procedure, shortened: as §1

ryegrass, Italian [9] = experiment: Test C preemergence; assay type: in vivo, Lolium multiflorum; conditions: preemergence, 0 to 100 scale (0 no effect, 100 complete control)
Procedure, shortened: as §1

ducksalad = experiment: Test D flooded paddy test; assay type: in vivo, Heteranthera limosa; conditions: 250 g ai/ha, applied to paddy water, visual rating after 13 to 14 days, scale 0 to 100 (0 no effect, 100 complete control)
Procedure, shortened: (§2)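 At the 2-leaf stage, floodwater 3 cm deep received the test compound; that depth persisted throughout. Plants scored visually 13 to 14 days on, 0 (no effect) to 100 (complete control), dash indicating no result.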

pigweed, palmer [10] = experiment: Test C preemergence; assay type: in vivo, Amaranthus palmeri; conditions: preemergence, 0 to 100 scale (0 no effect, 100 complete control)
Procedure, shortened: as §1

green foxtail [11] = experiment: Test C postemergence; assay type: in vivo, Setaria viridis; conditions: 10 days, 0 to 100 scale (0 no effect, 100 complete control)
Procedure, shortened: as §1

corn [12] = experiment: Test C preemergence; assay type: in vivo, Zea mays; conditions: preemergence, 0 to 100 scale (0 no effect, 100 complete control)
Procedure, shortened: as §1

soybean [13] = experiment: Test C preemergence; assay type: in vivo, Glycine max; conditions: preemergence, 0 to 100 scale (0 no effect, 100 complete control)
Procedure, shortened: as §1

blackgrass [14] = experiment: Test C postemergence; assay type: in vivo, Alopecurus myosuroides; conditions: 10 days, 0 to 100 scale (0 no effect, 100 complete control)
Procedure, shortened: as §1

barnyardgrass [15] = experiment: Test D flooded paddy test; assay type: in vivo, Echinochloa crus-galli; conditions: 250 g ai/ha, applied to paddy water, visual rating after 13 to 14 days, scale 0 to 100 (0 no effect, 100 complete control)
Procedure, shortened: as §2

soybean [16] = experiment: Test C postemergence; assay type: in vivo, Glycine max; conditions: 10 days, 0 to 100 scale (0 no effect, 100 complete control)
Procedure, shortened: as §1

barnyardgrass [17] = experiment: Test C postemergence; assay type: in vivo, Echinochloa crusgalli; conditions: 10 days, 0 to 100 scale (0 no effect, 100 complete control)
Procedure, shortened: as §1

sedge, umbrella = experiment: Test D flooded paddy test; assay type: in vivo, Cyperus difformis; conditions: 250 g ai/ha, applied to paddy water, visual rating after 13 to 14 days, scale 0 to 100 (0 no effect, 100 complete control)
Procedure, shortened: as §2

rice = experiment: Test D flooded paddy test; assay type: in vivo, Oryza sativa; conditions: 250 g ai/ha, applied to paddy water, visual rating after 13 to 14 days, scale 0 to 100 (0 no effect, 100 complete control)
Procedure, shortened: as §2

kochia [18] = experiment: Test C preemergence; assay type: in vivo, Bassia scoparia; conditions: preemergence, 0 to 100 scale (0 no effect, 100 complete control)
Procedure, shortened: as §1

ragweed [19] = experiment: Test C preemergence; assay type: in vivo, Ambrosia artemisiifolia; conditions: preemergence, 0 to 100 scale (0 no effect, 100 complete control)
Procedure, shortened: as §1

oat, wild [20] = experiment: Test C preemergence; assay type: in vivo, Avena fatua; conditions: preemergence, 0 to 100 scale (0 no effect, 100 complete control)
Procedure, shortened: as §1

wheat [21] = experiment: Test C preemergence; assay type: in vivo, Triticum aestivum; conditions: preemergence, 0 to 100 scale (0 no effect, 100 complete control)
Procedure, shortened: as §1

ragweed [22] = experiment: Test C postemergence; assay type: in vivo, Ambrosia artemisiifolia; conditions: 10 days, 0 to 100 scale (0 no effect, 100 complete control)
Procedure, shortened: as §1

pigweed, palmer [23] = experiment: Test C postemergence; assay type: in vivo, Amaranthus palmeri; conditions: 10 days, 0 to 100 scale (0 no effect, 100 complete control)
Procedure, shortened: as §1

## COC[C@H]1CN(C(=O)c2cc(-n3cnc(C(C)C)n3)ccc2C)c2cccc(Cl)c2O1 [Compound 313]
Blackgrass [1]; 500 g ai/ha
  Blackgrass plant response rating: 60
Blackgrass [1]; Test C, 125 g ai/ha
  Blackgrass plant response rating: 50
ryegrass, Italian [2]; 500 g ai/ha, postemergence
  Plant response rating, Ryegrass, Italian: 90
ryegrass, Italian [2]; Postemergence, 125 g ai/ha
  Plant response rating, Ryegrass, Italian: 80
Wheat [3]; 500 g ai/ha, postemergence
  Plant response rating, Wheat: 50
Wheat [3]; Postemergence, 125 g ai/ha
  Plant response rating, Wheat: 30
horseweed; 500 g ai/ha, postemergence
  Plant response rating, Horseweed: 90
horseweed; Postemergence, 125 g ai/ha
  Plant response rating, Horseweed: 90
Kochia [4]; 500 g ai/ha, postemergence
  Plant response rating, Kochia: 90
Kochia [4]; Postemergence, 125 g ai/ha
  Plant response rating, Kochia: 90
galium; 500 g ai/ha, postemergence
  Plant response rating, Galium: 100
galium; Postemergence, 125 g ai/ha
  Plant response rating, Galium: 100
oat, wild [5]; 500 g ai/ha, postemergence
  Plant response rating, Oat, Wild: 60
oat, wild [5]; Postemergence, 125 g ai/ha
  Plant response rating, Oat, Wild: 20
Green foxtail [6]; 500 g ai/ha
  Foxtail, Green plant response rating: 100
Green foxtail [6]; Test C, 125 g ai/ha
  Foxtail, Green plant response rating: 100
Corn [7]; 500 g ai/ha, postemergence
  Plant response rating, Corn: 90
Corn [7]; Postemergence, 125 g ai/ha
  Plant response rating, Corn: 80
Barnyardgrass [8]; 500 g ai/ha
  Barnyardgrass plant response rating: 100
Barnyardgrass [8]; Test C, 125 g ai/ha
  Barnyardgrass plant response rating: 80
ryegrass, Italian [9]; 500 g ai/ha
  Ryegrass, Italian plant response rating: 100
ryegrass, Italian [9]; Test C, 125 g ai/ha
  Ryegrass, Italian plant response rating: 80
ducksalad
  Plant response rating, Ducksalad (Flood): 65
pigweed, palmer [10]; 500 g ai/ha
  Pigweed, Palmer plant response rating: 100
pigweed, palmer [10]; Test C, 125 g ai/ha
  Pigweed, Palmer plant response rating: 100
Green foxtail [11]; 500 g ai/ha, postemergence
  Plant response rating, Foxtail, Green: 90
Green foxtail [11]; Postemergence, 125 g ai/ha
  Plant response rating, Foxtail, Green: 40
Corn [12]; 500 g ai/ha
  Corn plant response rating: 0
Corn [12]; Test C, 125 g ai/ha
  Corn plant response rating: 0
Soybean [13]; 500 g ai/ha
  Soybean plant response rating: 100
Soybean [13]; Test C, 125 g ai/ha
  Soybean plant response rating: 40
Blackgrass [14]; 500 g ai/ha, postemergence
  Plant response rating, Blackgrass: 100
Blackgrass [14]; Postemergence, 125 g ai/ha
  Plant response rating, Blackgrass: 70
Barnyardgrass [15]
  Plant response rating, Barnyardgrass (Flood): 35
Soybean [16]; 500 g ai/ha, postemergence
  Plant response rating, Soybean: 100
Soybean [16]; Postemergence, 125 g ai/ha
  Plant response rating, Soybean: 100
Barnyardgrass [17]; 500 g ai/ha, postemergence
  Plant response rating, Barnyardgrass: 70
Barnyardgrass [17]; Postemergence, 125 g ai/ha
  Plant response rating, Barnyardgrass: 40
sedge, umbrella
  Plant response rating, Sedge, Umbrella (Flood): 98
rice
  Plant response rating, Rice (Flood): 20
Kochia [18]; 500 g ai/ha
  Kochia plant response rating: 100
Kochia [18]; Test C, 125 g ai/ha
  Kochia plant response rating: 80
Ragweed [19]; 500 g ai/ha
  Ragweed plant response rating: 70
Ragweed [19]; Test C, 125 g ai/ha
  Ragweed plant response rating: 0
oat, wild [20]; 500 g ai/ha
  Oat, Wild plant response rating: 90
oat, wild [20]; Test C, 125 g ai/ha
  Oat, Wild plant response rating: 90
Wheat [21]; 500 g ai/ha
  Wheat plant response rating: 90
Wheat [21]; Test C, 125 g ai/ha
  Wheat plant response rating: 20
Ragweed [22]; 500 g ai/ha, postemergence
  Plant response rating, Ragweed: 90
Ragweed [22]; Postemergence, 125 g ai/ha
  Plant response rating, Ragweed: 60
pigweed, palmer [23]; 500 g ai/ha, postemergence
  Plant response rating, Pigweed, Palmer: 100
pigweed, palmer [23]; Postemergence, 125 g ai/ha
  Plant response rating, Pigweed, Palmer: 80
